In US20090186864A1, “RUTHENIUM (II) COMPOUNDS” (priority 2006, published 2009):

Tests used:
[1] = tested on: A2780 cancer cell line; experiment: Inhibitory growth activity against A2780 cancer cell line (sulforhodamine B assay, Example 11); assay type: cell-based, human; conditions: 24 hours exposure, 96 hours recovery, 0.5% DMSO
Method: (§1) Other compounds were tested for inhibitory growth activity against the A2780 and A549 cancer cell lines as follows. Each drug was tested for activity at six different concentrations (100 μM, 50 μM, 10 μM, 5 μM, 1 μM and 0.1 μM) and each concentration was tested in triplicate, relative to a cisplatin control.
(§2) The A2780 cancer cell line was maintained by growing the cells in RPMI media supplemented with 5% fetal bovine serum, 1% penicillin/streptomycin and 2 mM L-glutamine. The cells were split when approximately 70-80% confluence were reached using 0.25% trypsin/EDTA. The cells were kept incubated at 37° C., 5% CO2, high humidity. The A549 cancer cell line was maintained by growing the cells in DMEM media supplemented with 10% fetal bovine serum, 1% penicillin/streptomycin and 2 mM L-glutamine. The cells were split when approximately 70-80% confluence were reached using 0.25% trypsin/EDTA. The cells were kept incubated at 37° C., 5% CO2, high humidity.
(§3) A2780 cancer cells were plated out at 5000 cells/well (±10%) on day one. A549 cancer cells were plated out at 2000 cells/well (±10%) on day two. On day three the test compound was dissolved in DMSO to give a stock solution of 20 mM and serial dilutions were carried out in DMSO to give concentrations of drug in DMSO of 10 mM, 2 mM, 1 mM, 0.2 mM and 0.02 mM. These were added to the wells to give the six testing concentrations and a final concentration of DMSO as 0.5% (v/v) with a total volume of drugs and media to be 200 μl. The cells were exposed to the drug for 24 hours then, after drug removal, fresh media was given and the cells were incubated for 96 hours recovery time. The remaining biomass was estimated by the sulforhodamine B assay. The cells were then fixed using 50 μl 50% (w/v) TCA and incubated at 4° C. for one hour. The biomass was stained with 100 μl 0.4% (w/v) sulforhodamine B in 1% acetic acid.
(§4) The dye was solubilised with Tris Buffer and the absorbance was read using a BMG Fluostar microplate reader at 595 nm. A baseline correction at 690 nm was subtracted from the values. The absorbance for 100% cell survival was based on the average absorbance for the 0.1 μM dosed triplicate for that drug. IC50 values were calculated using XL-Fit version 4.0.

[2] = tested on: A549 cancer cell line; experiment: Inhibitory growth activity against A549 cancer cell line (sulforhodamine B assay, Example 11); assay type: cell-based; conditions: 24 hours exposure, 96 hours recovery, 0.5% DMSO
Method: as §1, §2, §3, §4

[3] = tested on: A2780 ovarian cancer cell line; experiment: Cytotoxicity against A2780 ovarian cancer cell line (Coulter counter cell count, Example 10); assay type: cell-based, human; conditions: 24 hours exposure, further 72 h growth, stock solutions in deionised water
Method: Some compounds were tested for cytotoxicity against the A2780 ovarian cancer cell line as follows.
(§5) The human ovarian cells were added at a density of 1×10^4 cells per well to 24-well tissue culture trays (Falcon Plastic, Becton Dickenson, Lincon Park, N.J., USA) and allowed to grow for 72 hours before addition of the Ru(II) arene complexes. Stock solutions of the ruthenium compounds were made up fresh in deionised water and sonicated to ensure complete dissolution. These stock solutions were diluted with media to give final concentrations ranging between 0.1 and 100 μM. All compounds were evaluated at each concentration in duplicate wells, and complete assays were repeated a minimum of three times. Cisplatin or carboplatin was employed as a positive and comparative control in each experiment. After 24 hours exposure the drug-containing medium was removed, the cells washed with phosphate buffered saline (PBS) and fresh medium was added. Cell number was assessed after a further 72 h growth using s Coulter counter (Coulter Electronics Ltd, Luton, UK) and the IC50 values (concentration of drug causing 50% growth inhibition) calculated by linear regression analysis comparing the inhibitory effects of the drugs against the growth of untreated cells.

[4] = tested on: cisplatin resistant cell line (A2780^cis); experiment: Cytotoxicity against cisplatin resistant cell line A2780cis (Example 10); assay type: cell-based, human
Method: as §5

Substance | IC50 [1] [µM] | IC50 [2] [µM] | IC50 [3] [µM] | IC50 ([4]; A2780cis cisplatin resistant cell line) [µM] | fold resistance ([4]; A2780cis versus A2780) [fold]
[(η^6-biph)RuCl(bipy(OH)O^−)] [Compound 8] | 40 |  |  |  | 
[(η^6-THN)Ru(bipydiol-N,N—H)Cl] [Compound 6] | 7.3 | 23.6 |  |  | 
[(η^6-DHA)Ru(bipydiol-N,N—H)Cl] [Compound 5] | 16.7 | 38.4 |  |  | 
[(η^6-p-terp)RuCl(bipy(OH)O—)] [Compound 9] | 21 | 62 |  |  | 
[(η^6-THA)Ru(bipydiol-N,N—H)Cl] [Compound 4] | 7.9 | 21 |  |  | 
[(η^6-indan)Ru(phenanthroline-N,N)Cl]PF6 [Compound 2] |  |  | 52 |  | 
[(η^6-indan)RuCl(bipydiol-N,N)Cl] [Compound 1] | 17.6 | 39 | 3 | 2.1 | 0.7
[(η-indan)Ru(2,9-Me2-phen-N,N)Cl]PF6 [Compound 3] |  |  | > 50 |  | 
[(η^6-bz)RuCl(bipy(OH)O^−)] [Compound 7] | 65 |  |  |  | 
